Source: patent publication US20250145639A1, “MUTANT KRAS MODULATORS AND USES THEREOF” (NEWAVE PHARMACEUTICAL INC., priority 2021, published 2025)

Tests used:
[1] = biological target: T1, HIS-KRAS (G12C, aa 2-185) (Homo sapiens, UniProt P01116, G12C); experiment: KRas G12C binding assay (TR-FRET, SOS1-mediated BODIPY FL GTP nucleotide exchange); conditions: GDP-loaded HIS-KRAS (G12C) 3 nM, 1 hour pre-incubation with compound, 4 hours with SOS1 ExD and BODIPY FL GTP at 25° C
T1 construct: HIS-KRAS (G12C, aa 2-185, Sino biological); purchased Sino biological
T1 sequence (P01116 2-185 isoform P01116-2 G12C): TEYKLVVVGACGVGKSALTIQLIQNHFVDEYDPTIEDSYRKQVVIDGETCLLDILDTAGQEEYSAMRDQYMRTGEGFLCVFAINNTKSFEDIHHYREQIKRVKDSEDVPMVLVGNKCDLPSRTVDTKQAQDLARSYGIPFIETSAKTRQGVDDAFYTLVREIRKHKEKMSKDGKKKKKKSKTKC
Experimental: Biological Example 1: KRas G12C Binding Assay
(§1) HIS-KRAS (G12C, aa 2-185, Sino biological) was diluted to 5 uM in EDTA buffer (20 mM HEPES, pH 7.4, 50 mM NaCl, 10 mM EDTA, 0.01% (v/v) Tween-20) and incubated for 30 min at 25° C. The EDTA pretreated HIS-KRAS (G12C) was diluted to 12 nM in assay buffer (25 mM HEPES, pH 7.4, 120 mM NaCl, 5 mM MgCl 2, 1 mM DTT, 0.01% (v/v) Tween 20, 0.1% (w/v) BSA) containing 120 nM GDP (Sigma) and MAb Anti 6HIS—Tb cryptate Gold (Cisbio) and incubated for 1 hour at 25° C. to prepare GDP-loaded HIS-KRAS (G12C). The GDP-loaded HIS-KRAS (G12C) was pre-incubation with diluted compounds in a 384-well plate (Greiner) for 1 hour, then purified SOS1 ExD (Flag tag, aa 564-1049) and BODIPY™ FL GTP (Invitrogen) were added to the assay wells (Final concentration: 3 nM HIS-KRAS (G12C), 2 uM SOS1 ExD, 80 nM BODIPY™ FL GTP, 21 ng/mL MAb Anti 6HIS—Tb cryptate Gold) and incubated for 4 hours at 25° C. TR-FRET signals were then read on Tecan Spark multimode microplate reader. The parameters were F486: Excitation 340 (35) nm, Emission 486 (10) nm, Lag time 100 μs, Integration time 200 μs; F515: Excitation 340 (35) nm, Emission 515 (10) nm, Lag time 100 μs, Integration time 200 μs. TR-FRET ratios for each individual wells were calculated by equation: TR-FRET ratio=(Signal F515/Signal F486)*10000. Then the data were analyzed using a 4-parameter logistic model to calculate IC50 values. The following table lists the IC50 values of certain compounds of the invention.

[2] = biological target: T2, GDP-loaded, histidine-tagged, truncated (1-169) KRAS G12C (Homo sapiens, UniProt P01116, G12C); experiment: KRas G12C in vitro covalent MS-based assay; format: binding; conditions: KRAS protein 2 uM, denaturing SEC-MS intact mass
T2 construct: histidine-tagged, truncated (1-169) KRAS proteins; His
T2 sequence (P01116 1-169 isoform P01116-2 G12C): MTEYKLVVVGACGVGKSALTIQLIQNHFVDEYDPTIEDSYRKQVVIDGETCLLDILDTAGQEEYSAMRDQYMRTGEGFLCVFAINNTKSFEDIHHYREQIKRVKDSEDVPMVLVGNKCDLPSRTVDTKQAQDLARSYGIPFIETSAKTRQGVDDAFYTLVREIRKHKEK
Experimental: Biological Example 2: KRas G12C In Vitro Covalent MS-Based Assay
GDP-loaded, histidine-tagged, truncated (1-169) KRAS proteins (G12C, WT, G13D, as indicated) at 2 uM final concentration were incubated with the test compounds at the doses and time points indicated in a buffer containing 20 mmol/L HEPES pH 7.5, 150 mmol/L NaCl, 1 mmol/L MgCl 2, and 1 mmol/L DTT. Reactions were quenched by adding formic acid to 0.2%. Samples were buffer exchanged and analyzed by denaturing SEC-MS (Orbitrap Eclipse), Mobile phase: 30% ACN, 0.1% formic acid, 0.02% TFA. Raw data were analyzed by charge state deconvolution with BioPharma Finder 4.1 Intact Mass, ReSpect and Sliding Window algorithms. The masses were calculated via software for KRAS_G12C theoretical sequence and experimental compounds.

[3] = biological target: HIS-KRAS (G12V) (Homo sapiens, UniProt P01116, G12V); experiment: KRas G12V binding assay (TR-FRET, SOS1-mediated BODIPY FL GTP nucleotide exchange); conditions: GDP-loaded HIS-KRAS (G12V) 3 nM, 1 hour pre-incubation with compound, 4 hours with SOS1 ExD and BODIPY FL GTP at 25° C
Chain of HIS-KRAS (G12V) (P01116 1-188 isoform P01116-2 G12V): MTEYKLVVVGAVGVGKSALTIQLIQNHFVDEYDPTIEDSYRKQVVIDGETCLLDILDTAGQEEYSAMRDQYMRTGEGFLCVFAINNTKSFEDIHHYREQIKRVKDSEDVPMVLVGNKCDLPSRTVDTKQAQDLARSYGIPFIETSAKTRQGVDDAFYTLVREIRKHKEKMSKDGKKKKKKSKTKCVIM
Experimental: Biological Example 3: KRas G12V Binding Assay
as §1, with “(G12V)” for “(G12C, aa 2-185, Sino biological)”, “(G12V)” for “(G12C)”, “(G12V).” for “(G12C).”, “(G12V),” for “(G12C),”

How did the IC50 [1] turn out when `C#Cc1c(F)ccc2cc(O)cc(-c3ncc4c(N5CCCC[C@@H](NC(=O)C=C)C5)nc(OCC56CCCN5CCC6)nc4c3F)c12` [Example 8, N-[(3R)-1-[7-(8-ethynyl-7-fluoro-3-hydroxynaphthalen-1-yl)-8-fluoro-2-(hexahydropyrrolizin-7a-ylmethoxy)pyrido[4,3-d]pyrimidin-4-yl]azepan-3-yl]prop-2-enamide] was run?
Its IC50 is 7.11 nM.

And the “Binding Model” value [2]?
The value was “Covalent binding”.

What about the IC50 [3] of the same molecule?
The IC50 was 22.9 nM.

What does the source list for `C#Cc1c(F)ccc2cc(O)cc(-c3ncc4c(N5CCCC[C@H](NC(=O)C=C)C5)nc(OCC56CCCN5CCC6)nc4c3F)c12` [Example 9, N-[(3S)-1-[7-(8-ethynyl-7-fluoro-3-hydroxynaphthalen-1-yl)-8-fluoro-2-(hexahydropyrrolizin-7a-ylmethoxy)pyrido[4,3-d]pyrimidin-4-yl]azepan-3-yl]prop-2-enamide]?
IC50 [1]: 6.4 nM; Binding Model [2]: Covalent binding; IC50 [3]: 3.15 nM
